Measured values taken from PubChem BioAssay (NCI).
Several values for one entry are separate records, joined by “and”; a condition that tells them apart may be missing. Identical values can stand only once.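 Exposure lasted 48 hours, with cells grown in 96-well plates and compounds tested at five concentrations. GI50: concentration for 50% inhibition of growth. TGI: total growth inhibition.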

Tests used:
Assay in all cases: growth of human tumour cells (NCI), 48 h
[1] = test system: MOLT-4 leukemia
[2] = test system: UACC-62 melanoma
[3] = test system: NCI-H522 lung
[4] = test system: SK-MEL-5 melanoma
[5] = test system: HL-60(TB) leukemia
[6] = test system: RXF 393 renal
[7] = test system: A549 NSCLC
[8] = test system: NCI-H226 lung
[9] = test system: SK-OV-3 ovarian
[10] = test system: NCI-H460 lung

Row | SMILES | TGI [1] | TGI [2] | TGI [3] [µM] | TGI [4] | TGI [5] [µM] | TGI [6] | TGI [7] | TGI [8] | TGI [9] | TGI [10] | GI50 [1] | GI50 [2] | GI50 [3] [µM] | GI50 [4] | GI50 [5] | GI50 [6] [µM] | GI50 [7] | GI50 [8] [µM] | GI50 [9] | GI50 [10]
1 | Cc1[nH]nc(C(=O)N/N=C/c2ccccc2Cl)c1N=NN(C)C | > 100 µM | > 100 µM | > 100 | > 100 µM | > 100 | > 100 µM | > 100 µM | > 100 µM | > 100 µM | > 100 µM |  |  |  |  |  |  |  |  |  | 
2 | Nc1c(C(=O)Nc2cccc(C(F)(F)F)c2)sc2nc3c(cc12)CCCCCC3 | 35.1 µM | 21.5 µM | 26.9 | 15 µM | > 100 | 3.21 µM | 5.08 µM | 11.9 µM | 6.29 µM | 7.52 µM | 11.1 µM | 3.25 µM | 4.09 | 2.15 µM | 11.3 µM | 1.63 | 1.77 µM | 1.76 | 2.26 µM | 2.32 µM
3 | COc1cc(C2CC(c3cccc(Nc4ccnc5cc(Cl)ccc45)c3)=NN2c2ccccc2)cc(OC)c1OC (stereo unspecified) | > 100 µM | > 100 µM | > 100 | 23.8 µM | > 100 | > 100 µM | > 100 µM | > 100 µM | > 100 µM | > 100 µM | 7.98 µM | 0.869 µM | 3.6 | 4.56 µM | 5.37 µM | 8.37 | 8.87 µM | 41.2 | > 100 µM | 3.27 µM
4 | CC1[C@@H]2CC=C3[C@H]4CCC5Cc6nc7c(nc6C[C@@]5(C)C4CC(=O)[C@]32CO[C@]12OC(C)(C)CC2O)CC1CC[C@@H]2C3=C[C@H]4O[C@@]5(O[C@@](C)(CO)C[C@@H]5O)C(C)[C@@]4(O)[C@]3(C)[C@@H](O)CC2[C@]1(C)C7 (stereo partly specified) | 0.00156 µM and 0.00157 µM | 0.00098 µM and 0.0062 µM |  | 0.022 µM and 0.146 µM |  | 0.000428 µM and 0.00414 µM | 0.164 µM and 0.47 µM | 0.0901 µM and 0.103 µM | 0.0239 µM and 0.073 µM | 0.013 µM and 0.116 µM | 0.000203 µM and 0.000365 µM | 0.000316 µM and 0.000574 µM | 0.0131 | 0.00235 µM and 0.00215 µM | 0.000355 µM and 0.000365 µM | 0.000365 | 0.00051 µM and 0.00133 µM |  | 0.00138 µM and 0.00234 µM | 0.000268 µM and 0.000365 µM
5 | Cc1c(Cl)c(C)c(Cl)c(O)c1Cl | 54.5 µM | 37.4 µM | 50.7 | 35.9 µM | 58.4 | > 100 µM | 71.9 µM | 63.3 µM | > 100 µM | 65.8 µM |  |  |  |  |  |  |  |  |  | 
6 | C[C@]12CCc3nn(-c4ccccc4)nc3C1CC[C@@H]1C2CC[C@]2(C)C(=O)CCC12 (stereo partly specified) | > 100 µM | > 100 µM | > 100 | > 100 µM | > 100 | > 100 µM | > 100 µM | > 100 µM | > 100 µM | > 100 µM |  |  |  |  |  |  |  |  |  | 
7 | CCOC(=O)C(=O)C(C#N)c1ccc(Cl)cc1 (stereo unspecified) | > 100 µM | > 100 µM | > 100 | > 100 µM | > 100 | > 100 µM | > 100 µM | > 100 µM | > 100 µM | > 100 µM |  |  |  |  |  |  |  |  |  | 
8 | Cc1cc(C)c2c(c1)N(C)c1ncnc(-n3cnc4cc(C)ccc43)c1CC2C (stereo unspecified) | 9.57 µM | 18.4 µM | 6.53 | 5.34 µM | 9.36 | 9.06 µM | 56.9 µM | 17.9 µM | > 100 µM | 11.4 µM | 2.46 µM | 3.13 µM | 2.07 | 2.24 µM | 2.46 µM | 2.66 | 4.03 µM | 3.1 | 4.41 µM | 3.4 µM
9 | O=C(/C=C/C=C/c1ccc2c(c1)OCO2)N/N=C\c1ccc(O)cc1O | 18.8 µM | 7.08 µM | 15.3 | 3.87 µM | 24.1 | 6.88 µM | 33.8 µM | 11.3 µM | 20.9 µM | 10.5 µM | 1.41 µM | 1.63 µM | 2.9 | 1.63 µM | 3.58 µM | 1.74 | 2.93 µM | 2.78 | 3.43 µM | 1.58 µM
10 | C=CC(=O)N1CCC[C@@H](n2nc(-c3ccc(Oc4ccccc4)cc3)c3c(N)ncnc32)C1 | > 10 µM | > 10 µM | > 10 | > 10 µM | > 10 | > 10 µM | > 10 µM | > 10 µM | > 2.42 µM | > 10 µM | > 5.29 µM | > 4.22 µM | 0.0859 | > 10 µM | > 5.51 µM | > 5.25 | > 10 µM | > 6.06 | 0.0285 µM | > 10 µM
11 | Nc1n[nH]c2ccc([C@@H]3Nc4ccc5cn[nH]c5c4[C@H]4C5CCC(C5)[C@@H]34)cc12 (stereo partly specified) | > 100 µM | 34.3 µM | 54.6 | 3.45 µM |  | 0.724 µM | > 100 µM | 50 µM | > 100 µM | > 100 µM | 0.446 µM | 0.389 µM | 0.385 | 0.355 µM | 0.326 µM | 0.236 | 0.541 µM | 0.977 | 0.831 µM | 0.382 µM
12 | COc1cc(C)[nH]c(=O)c1CNC(=O)c1c(C)n([C@H](C)C2CCN(CC(F)(F)F)CC2)c2ccccc12 | > 100 µM | > 100 µM | > 100 | 54.4 µM | 82.9 | 99.5 µM | > 100 µM | > 100 µM | > 100 µM | > 100 µM | 35.9 µM | 32.5 µM | 80.3 | 19 µM | 28.5 µM | 21.7 | 87.4 µM | 34.4 | 51.8 µM | 42.9 µM
13 | CC(=O)Nc1ccc(C2=N/C(=C\c3ccc(Cl)cc3)C(=O)O2)cc1 | 64.1 µM | > 100 µM | 63.7 | > 100 µM | 85.8 | > 100 µM | > 100 µM | > 100 µM | > 100 µM | > 100 µM |  |  |  |  |  |  |  |  |  | 
14 | O=C(O)c1ccc(/C=N/N=C2c3ccccc3-c3ccccc32)cc1 | > 100 µM | > 100 µM | > 100 | > 100 µM | > 100 | > 100 µM | > 100 µM | 45.5 µM | > 100 µM | > 100 µM |  |  |  |  |  |  |  |  |  | 
